What was measured:
TTR tetramer = target: T1, TTR tetramer (Homo sapiens, UniProt P02766); conditions: wtATTR-CM, off-label diflunisal; untreated 22 mg/dL (12-29); cited from earlier work
T1 construct: TTR tetramer levels were measured by immunoturbidimetric (IT) assays by Abbot Laboratories; from tissue; host or cells: blood samples of human wtATTR-CM patients (literature study, Circ Heart Fail 2018)

wtATTR-CM patients = conditions: p<0.001; cited from earlier work
[1] = test system: TTR-assisted beta-amyloid (Aβ) transport; conditions: cited from earlier work
[2] = oral tafamidis (presumably 20 mg QD) long-term; cited from earlier work
HMW TTR = conditions: V30M ATTR patients; cited from earlier work
[3] = Tafamidis exposure in vitreous fluid / across blood-brain barrier after oral dosing; type: in vivo, human; conditions: long-term
Source text: Multiple publications have reported reduced serum TTR levels, as measured by nephelometry or radial immunodiffusion (commercial kits readily available), in familial amyloid polyneuropathy patients with vitreous amyloidosis. “Prealbumin. A major constituent of vitreous amyloid,” Ophthalmology. 1987 July; 94(7):792-8. […] “Transthyretin deposition in the eye in the era of effective therapy for hereditary ATTRV30M amyloidosis,” https://doi.org/10.1080/13506129.2018.1554563.

TTR [4] = target: TTR (Homo sapiens, UniProt P02766); assay: TTR levels in ATTR-CM patients on tafamidis 20 mg QD (Fx1B-201), immunoturbidimetric assays; type: in vivo; conditions: wtATTR-CM patients
Method: (§1) We believe these levels were measured using immunoturbidimetric assays performed by Genzyme Analytic Services.

TTR [5] = target: TTR (Homo sapiens, UniProt P02766, V142I); assay: as above; type: in vivo; conditions: V1221 mATTR-CM patients
Method: as §1

native TTR = conditions: Taf Group; no Taf Group 273.8 nM, non-ATTR controls 271.5 nM; not significantly different; cited from earlier work
[6] = test system: ATTR patients with mutated TTR (V30M); conditions: cited from earlier work
ATTR-CM patients = conditions: cited from earlier work
TTR [7] = assay: TTR levels at tafamidis 20 vs 80 mg, Phase 3 ATTR-ACT trial; type: in vivo, human; conditions: proprietary analysis
Method: We believe our discovery has relevance to the recently reported Phase 3 ATTR-ACT trial that readout positive mortality reduction with pooled tafamidis (20 mg and 80 mg QD) vs placebo. […] This is in line with one of Pfizer's expectations for the Phase 3 protocol (Maurer 2018, Phase 3 Final Protocol, 31 Jul. 2013. PF-06291826 Tafamidis Meglumine. B3461028) when looking at the plot of % TTR stabilization (y-axis) and molar ratio of tafamidis in FIG. 5: TTR levels (μM). We highlighted in red the wide ranges for pharmacodynamic effects related to 80 mg relative to 20 mg (in blue shade) to point out (1) potential for both dose-strengths to nearly overlap, (2) plotted data points were from Phase 1 data in healthy volunteers using liquid formulations of tafamidis (not capsule formulation given in Phase 3 ATTR-ACT trial), and (3) 80 mg PD expectations were calculated as a 4× multiple of 20 mg PD data, which could be important given PK variations may have not been optimized and could explain differences seen in Phase 3 ATTR-ACT clinical trial which tested 20 mg and 80 mg doses of tafamidis.

O=C(O)c1cc(-c2ccc(F)cc2F)ccc1O [diflunisal]
TTR levels after one year (TTR tetramer): 30 mg/dL | one-year survival-rates vs untreated (wtATTR-CM patients): improved one-year survival-rates

O=C(O)c1cc(-c2ccc(F)cc2F)cc(I)c1O [iodo-diflunisal]
TTR-assisted beta-amyloid (Aβ) transport [1]: enhanced

O=C(O)c1ccc2nc(-c3cc(Cl)cc(Cl)c3)oc2c1 [tafamidis]
drug levels in the vitreous fluid [2]: detectable drug levels | HMW TTR levels (HMW TTR): increase HMW TTR levels | blood-brain barrier crossing [3]: can cross the blood-brain barrier | increase of TTR levels from baseline (TTR [4]): ~17% | increase of TTR levels from baseline (TTR [5]): 50-60% | Average [native TTR] in the CSF (native TTR): 265.8 nM | ocular abnormalities ([6]; 20 mg/day, liver transplant 34%, supportive therapy 26%): 22% | ocular abnormalities compared to untreated or liver transplantation ([6]; ATTR-PN, long-term treatment (>5 years), p=0.09 vs untreated, p=0.007 vs liver transplantation): lower ocular abnormalities | lower death-rates at month-30 compared to untreated (ATTR-CM patients; ATTR-CM patients, 20 mg tafamidis, long-term follow-up): ~40% | rate at month-30 (77% vs 45% untreated) (ATTR-CM patients; ATTR-CM patients, 20 mg tafamidis): 77% | reduction in death-rate at month-30 vs placebo (ATTR-CM patients; Phase 3 ATTR-ACT, pooled 20 mg QD and 80 mg QD, mATTR and wtATTR-CM): ~30% | differences in TTR levels between the two dose-strengths (TTR [7]): ~1 mg/dL

Source: patent US20210223266A1, “METHODOLOGIES AND METHODS FOR MEASURING HIGHER MOLECULAR WEIGHT TRANSTHYRETIN OR EQUIVALENTS AS A CLINICAL BIOMARKER” (TTR Therapeutics, priority 2019, published 2021)
